# Marks after values point to notes of the source that are not given here.
# Assays:
# [1] = tested on: patients with advanced solid tumors; conditions: oral
# [2] = Pharmacokinetic assessments in patient plasma; assay type: in vivo, human
# [3] = tested on: S6 ribosomal protein phosphorylation (Ser235/236) in PBMCs; assay: PBMC phospho/total S6RP analysis; assay type: in vivo, human; conditions: PBMCs of patients, baseline to 1 month of treatment (with vatalanib)
# solid tumors = conditions: cited from earlier work
# [4] = everolimus with vatalanib, day 29, mean ± SD
# [5] = vatalanib after everolimus started, day 29, mean ± SD
# [6] = vatalanib alone, day 14, mean ± SD
structure (smiles),measurement,setting,value
CO[C@H]1C[C@@H]2CC[C@@H](C)[C@@](O)(O2)C(=O)C(=O)N2CCCC[C@H]2C(=O)O[C@H]([C@H](C)C[C@@H]2CC[C@@H](OCCO)[C@H](OC)C2)CC(=O)[C@H](C)/C=C(\C)[C@@H](O)[C@@H](OC)C(=O)[C@H](C)C[C@H](C)/C=C/C=C/C=C/1C [Everolimus],Maximum tolerated dose (MTD) of everolimus in the combination,[1]; combined with vatalanib 1000 mg daily,5 mg daily
same,CLss/F,[2]; [4],14.3 ± 3.7 L/h
same,Cssavg,[2]; [4],15.7 ± 4.9 ng/mL
same,Cssmax,[2]; [4],48.5 ± 14.8 ng/mL
same,Time of peak of mean plasma concentration,"[2]; everolimus, cycle 1 day 29, mean concentration-time curve (Fig. 3B)",2 h
same,Vd/F,"[2]; human, plasma, oral",216 ± 74 L
same,AUC,"[2]; human, plasma, oral, everolimus with vatalanib, day 29, 24-hour dosing interval, mean ± SD",377 ± 117 ng·h/mL
same,half-life,"[2]; human, plasma, oral, t1/2, everolimus with vatalanib, day 29, mean ± SD",14 ± 2.5 h
same,Tmax,"[2]; human, plasma, oral, tmax, everolimus with vatalanib, day 29, median (range)",1.31 h
same,Mean change in phospho/total ratio of S6RP,[3],no mean change
Clc1ccc(Nc2nnc(Cc3ccncc3)c3ccccc23)cc1 [Vatalanib],Daily dose with radiographic evidence of a decrease in tumor blood flow,solid tumors; several clinical trials,≥ 1000 mg
same,Tolerable dosing,"solid tumors; single agent, clinical trials",≤ 2000 mg daily
same,Maximum tolerated dose (MTD) of vatalanib in the combination,[1]; combined with everolimus 5 mg daily,1000 mg daily
same,Effect of adding everolimus on systemic exposure of vatalanib (AUC),[2]; day 14 vs day 29,not significantly affected
same,Effect of everolimus on the PK parameters of vatalanib (maximum or steady-state plasma concentrations),[2]; day 14 vs day 29,no substantial effect
same,Vd/F,"[2]; human, plasma, oral",488 ± 481 L
same,AUC,"[2]; human, plasma, oral, vatalanib after everolimus started, day 29, 24-hour dosing interval, mean ± SD",21600 ng·h/mL
same,AUC,"[2]; human, plasma, oral, vatalanib alone, day 14, 24-hour dosing interval, mean ± SD",26400 ng·h/mL
same,half-life,"[2]; human, plasma, oral, t1/2, vatalanib after everolimus started, day 29, mean ± SD",5.7 h
same,half-life,"[2]; human, plasma, oral, t1/2, vatalanib alone, day 14, steady state, plasma, mean ± SD",6.3 h
same,Tmax,"[2]; human, plasma, oral, tmax, vatalanib after everolimus started, day 29, median (range)",2 h
same,Tmax,"[2]; human, plasma, oral, tmax, vatalanib alone, day 14, median (range)",2 h
same,Cssavg,[2]; [5],901 ± 403 ng/mL
same,Cssmax,[2]; [5],3963 ± 1861 ng/mL
same,t1/2,[2]; [5],5.71 ± 3.06 h
same,Tmax,"[2]; vatalanib after everolimus started, day 29, median (range)",2.08 (1.00-4.08) ^a h
same,Cssavg,[2]; [6],1099 ± 551 ng/mL
same,Cssmax,[2]; [6],4825 ± 2910 ng/mL
same,t1/2,"[2]; vatalanib alone, day 14, steady state, plasma, mean ± SD",6.32 ± 4.46 h

# Source: paper PMC4623321 (Clinical genitourinary cancer, 2013)
